Columns and labels:
mCD1d [1] = target: T1, mCD1d (Mus musculus, UniProt P11609); test: In vitro CD1d loading assay with immobilized mCD1d, saposins or Triton X-100, DN32.D3 hybridoma IL-2 readout; format: biochemical; conditions: for effect of all four saposins on mCD1d loading: saposins 10 μg/ml
T1 sequence (P11609 22-305 limits assumed): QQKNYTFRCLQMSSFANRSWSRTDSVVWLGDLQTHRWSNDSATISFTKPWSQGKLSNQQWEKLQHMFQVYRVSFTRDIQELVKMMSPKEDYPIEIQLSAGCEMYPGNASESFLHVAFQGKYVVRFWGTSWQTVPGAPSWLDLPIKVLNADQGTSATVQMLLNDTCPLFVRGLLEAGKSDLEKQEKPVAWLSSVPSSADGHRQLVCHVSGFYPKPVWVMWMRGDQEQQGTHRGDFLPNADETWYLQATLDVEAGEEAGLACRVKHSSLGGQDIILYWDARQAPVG
T1 sequence (P01887 21-119 partner): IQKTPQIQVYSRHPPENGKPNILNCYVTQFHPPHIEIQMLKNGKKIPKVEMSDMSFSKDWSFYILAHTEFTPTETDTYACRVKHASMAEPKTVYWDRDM
Protocol: Figure 5 Lack of Detergent-like Cofactor Dependence of Th2 Cell-Type Cytokine-Biasing αGalCer Analogs (A) Glycolipids were incubated for 24 hr at 37°C with murine CD1d proteins in the absence (top row) or presence (bottom row) of 0.05% Triton X-100. The resulting complexes were assembled as tetramers and used for staining mouse iNKT hybridoma DN3A4.1-2. The dashed line histograms show background staining with unloaded tetramers, and the bold histograms show staining with glycolipid loaded tetramers. (B) The same analysis as in (A) except with human CD1d tetramers, which were also used for DN3A4.1-2 staining. (C) Glycolipids at various concentrations were incubated with immobilized mCD1d protein for 2 hr in pH 7.0 or pH 5.0 buffers with no additives (medium) or in the same buffers containing the indicated purified recombinant saposins (10 μg/ml) or Triton X-100 (0.05%). After washing, DN32.D3 iNKT hybridoma cells were added and supernatant concentrations of IL-2 were determined after an additional 14 hr of incubation. All results shown (A, B, and C) were representative of at least two independent experiments.
To extend these observations to a more physiological model, we tested the effects of purified recombinant saposin A, B, C, and D proteins on loading of αGalCer analogs.
Recombinant murine CD1d proteins at 4 μg/ml in 50 μl PBS were coated on the surfaces of microtiter plate wells for 2 hr at 37°C and then washed with PBS for removal of unbound proteins. Subsequently, various concentrations of glycolipids in 0.1 M sodium phosphate buffer (pH 7.0) or 0.1 M sodium citrate buffer (pH 5.0) containing 150 mM NaCl were incubated with or without 0.05% Triton X-100 or recombinant purified human saposins A, B, C, or D at 10 μg/ml for another 2 hr at 37°C. Saposins were produced and purified as described ([Yuan et al., 2007]). After extensive washing with PBS and media, 5 × 10^4 murine iNKT hybridoma DN32.D3 cells were added in 200 μl of complete medium and incubated at 37°C for 14 hr. Supernatants were analyzed for murine IL-2 by capture ELISA.

mCD1d [2] = target: T1, mCD1d; test: Loading of mCD1d tetramers with or without 0.05% Triton X-100, staining of hybridoma DN3A4.1-2; format: binding; conditions: 0.05% Triton X-100, 24 hr at 37°C
Description: The efficient loading of CD1 molecules with lipids such as αGalCer-C26:0 is known to involve cofactors that enhance the transfer of lipids from micelles or membranes into the antigen-binding groove of the CD1 protein. The best known of these cofactors are resident intracellular lipid binding and transfer proteins including those belonging to the saposin family, GM2 activator proteins, and Niemann-Pick type C1 and C2 proteins ([Zhou et al., 2004; Sagiv et al., 2006; Yuan et al., 2007; Schrantz et al., 2007]). Most of these are known to have detergent-like activities that facilitate solubilization of lipids and their exchange between hydrophobic binding sites. […]
Figure 5 Lack of Detergent-like Cofactor Dependence of Th2 Cell-Type Cytokine-Biasing αGalCer Analogs (A) Glycolipids were incubated for 24 hr at 37°C with murine CD1d proteins in the absence (top row) or presence (bottom row) of 0.05% Triton X-100. […] After washing, DN32.D3 iNKT hybridoma cells were added and supernatant concentrations of IL-2 were determined after an additional 14 hr of incubation. […]
Recombinant CD1d proteins were produced and assembled into tetramers for staining as previously described ([Forestier et al., 2007]). […] All samples were analyzed with the FACSCalibur flow cytometer (BD Biosciences).

SMILES | effect of all four saposins on mCD1d loading (mCD1d [1]; acidic pH) | effect of all four saposins on mCD1d loading (mCD1d [1]; neutral pH) | effect of Triton X-100 on formation of mCD1d tetramers that bind iNKT cell TCRs (mCD1d [2]) | cofactor dependence of mCD1d loading (mCD1d [1]; recombinant mCD1d, iNKT hybridoma IL-2 readout)
CCCCCCCCCCCCCCC(O)C(O)C(COC1OC(CO)C(O)C(O)C1O)NC(=O)CCCCCCCCC (centres unmarked) [αGalCer-C10:0] | reduced mCD1d loading | only modest enhancement | – | –
CCCCCCCCCCCCCCCCCCCCCCCC(=O)NC(COC1OC(CO)C(O)C(O)C1O)C(O)C(O)CCCCCCCCCCCCCC (centres unmarked) [αGalCer-C24:0] | – | – | clear enhancing effect | –
CCCCCCCCCCCCCCCCCCCCCCCCCC(=O)NC(COC1OC(CO)C(O)C(O)C1O)C(O)C(O)CCCCCCCCCCCCCC (centres unmarked) [αGalCer-C26:0, reference compound] | – | – | clear enhancing effect | dependent either on the presence of detergent (0.1% Triton X-100) or on the presence of a purified saposin
